We go through eight compounds from patent publication US6207683A, “Benzocycloheptathiophene compounds” (Bridge Pharma, Inc., priority 1999, dated 2001).

Structures can show the parent of a compound that is named as a salt. Where two headings read alike, the source gives them in different places.

Series [1] has as its target T1, histamine H1 -receptors (membranes from bovine cerebellum) (Bos taurus, UniProt P30546).
T1 construct: membranes from bovine cerebellum; from tissue; host or cells: bovine cerebellum membranes
Nature of the series: [^3 H]pyrilamine binding assay, histamine H1-receptors. On the procedure:
1. Binding to histaminergic receptors
The affinities of the test compounds for histamine H1 -receptors were assessed using the [^3 H]pyrilamine binding assay, modified after Chang et al. Heterogeneity of Histamine H1 -Receptors. J. Neurochem. 1979, 32: 1653-1663 Briefly, membranes from bovine cerebellum were incubated with [^3 H]pyrilamine and the test compound at increasing concentrations. The specific binding of the radioactive ligand to the receptor was defined as the difference between total binding and nonspecific binding, determined in the presence of an excess of unlabelled ligand. IC50 values (concentration required to inhibit 50% of specific binding of [^3 H]pyrilamine) were determined by non linear regression analysis of the competition curves.

Series [2] has as its target T2, muscarinic M1 -receptors (bovine striatal membranes) (Bos taurus, UniProt F1N5C5).
T2 sequence (F1N5C5 1-460): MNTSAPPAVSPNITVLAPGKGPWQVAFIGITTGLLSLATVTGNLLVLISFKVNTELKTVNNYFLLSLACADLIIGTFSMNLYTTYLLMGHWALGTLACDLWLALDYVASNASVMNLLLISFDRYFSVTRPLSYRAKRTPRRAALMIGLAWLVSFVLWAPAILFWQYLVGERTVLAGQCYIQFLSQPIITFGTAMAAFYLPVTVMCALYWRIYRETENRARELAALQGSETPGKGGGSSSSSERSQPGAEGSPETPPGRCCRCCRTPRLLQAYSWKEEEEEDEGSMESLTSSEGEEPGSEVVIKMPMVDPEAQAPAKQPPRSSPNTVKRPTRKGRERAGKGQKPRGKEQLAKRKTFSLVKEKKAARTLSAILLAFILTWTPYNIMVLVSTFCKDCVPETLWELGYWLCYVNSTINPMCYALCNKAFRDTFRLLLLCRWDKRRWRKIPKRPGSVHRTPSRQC
Put plainly: biochemical. It counts as binding. The procedure: 2. Binding to muscarinic receptors
The affinities of the test compounds for muscarinic M1 -receptors were assessed using the [^3 H]pirenzepine binding assay, modified after Luthin et al. [^3 H]Pirenzepine and [^3 H]QNB binding to brain muscarinic cholinergic receptors. Molec. Pharmac. 1984, 26: 164-169. Briefly, the experiments were carried out on bovine striatal membranes expressing muscarinic M1 -receptors. After incubation with the test article and the proper radioligand and washing, bound radioactivity is determined with a […], using a commercial scintillation cocktail. The specific radioligand binding to each receptor is defined as the difference between total binding and nonspecific binding determined in the presence of an excess of unlabelled ligand. IC50 values (concentrations required to inhibit 50% of specific binding) were determined by non linear regression analysis of the competition curves.

Series [3] relates to physostigmine-induced lethality. Nature of the series: Physostigmine-induced lethality test (sedative effects). The format is in vivo. To be noted: survivors of 10 mice 30 min after physostigmine 1.9 mg/kg s.c.; oral treatment 60 min before, mg/kg: Ketotifen 107, Nor-ketotifen 83, Example 2 94, Example 5 108, Astemizole 115. On the procedure:
3. Studies on sedative effects
The physostigmine-induced lethality test used in these tests is a modification of the sedation test technique reported by COLLIER et al., in Br. J. Pharmac., 1968, 32: 295-310. In short, physostigmine (1.9 mg/kg s.c.) produces 100% lethality when given to grouped mice with 10 animals in each plastic cage (approx. 11×26×13 cm). Mice administered a sedating antihistamine prior to physostigmine are protected and survive. In the present study, test compounds were administered orally 60 minutes prior to physostigmine. The number of survivors were counted 30 minutes after physostigmine administration. The doses in the CNS test were half of the molecular weights of the test compounds, expressed in mg/kg body weight.

A short description of series [4]: Sedative activity (general statement). It counts as in vivo. To be noted: statement in words.
Where [5] appears, read: inhibition of 50% of specific binding of [^3 H]pyrilamine, bovine cerebellum membranes, read-out: IC50.
The mark [6] stands for this setting: inhibition of 50% of specific [^3 H]pirenzepine binding, bovine striatal membranes, read-out: IC50.

T1 sequence (P30546 whole entry): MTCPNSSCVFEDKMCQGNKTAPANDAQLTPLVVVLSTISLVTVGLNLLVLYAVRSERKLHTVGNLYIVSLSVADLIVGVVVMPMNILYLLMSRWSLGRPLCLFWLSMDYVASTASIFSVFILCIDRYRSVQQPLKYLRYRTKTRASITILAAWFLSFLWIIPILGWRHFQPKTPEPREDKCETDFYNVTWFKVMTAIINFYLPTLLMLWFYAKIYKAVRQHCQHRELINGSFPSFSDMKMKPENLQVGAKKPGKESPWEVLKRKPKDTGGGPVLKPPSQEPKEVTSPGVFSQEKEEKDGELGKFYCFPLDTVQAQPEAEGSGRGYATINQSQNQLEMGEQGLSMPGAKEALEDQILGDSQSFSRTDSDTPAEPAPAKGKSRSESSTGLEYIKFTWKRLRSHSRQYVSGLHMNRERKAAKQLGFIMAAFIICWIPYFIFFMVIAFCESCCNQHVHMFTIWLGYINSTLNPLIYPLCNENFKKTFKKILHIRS

For orientation: IC50 means the concentration that inhibits the measured activity by half. Regarding `OC1Cc2ccccc2C(=C2CCNCC2)c2ccsc21` (stereo not drawn) [10-OH-NORKETOTIFEN, 10-OH-norketotifen], in series [1] (setting [5]), the concentration for half-maximal inhibition (IC50) was 113 nM.

`CN1[C@@H]2CC[C@H]1C[C@@H](OC(=O)C(CO)c1ccccc1)C2` (stereo partly drawn) [ATROPINE Sulfate]: the IC50 in series [2] came to 0.574 nM.

In the case of `COc1ccc(CCN2CCC(Nc3nc4ccccc4n3Cc3ccc(F)cc3)CC2)cc1` [Astemizole], in series [3], the Survived is 1/10.

With `O=C1Cc2ccccc2C(=C2CCN(CCO)CC2)c2ccsc21` [Example 2], the Survived in series [3] is 3/10. Besides, the IC50 in series [1] (setting [5]) is 5.85 nM; in series [2] (setting [6]) it was 235 nM.

With `O=C(O)COCCN1CCC(=C2c3ccccc3CC(=O)c3sccc32)CC1` [Example 5], the Survived in series [3] is recorded as 0/10. In addition, the IC50 in series [1] (setting [5]) came to 69.5 nM; in series [2] (setting [6]), 880 nM.

Take `CN1CCC(=C2c3ccccc3CC(=O)c3sccc32)CC1` [Ketotifen, ketotifen]: in series [3], the Survived is given as 9/10. Also, in series [4], the “sedative activity / sedative side effects” value is “profound sedative side effects”.

With `O=C1Cc2ccccc2C(=C2CCNCC2)c2ccsc21` [Norketotifen, 4-(4-piperidylidene)-9,10-dihydro-4 H-benzo[4,5]cyclo-hepta[1,2-] thiophene-10-one], the Survived in series [3] is reported as 3/10. For the same compound, the IC50 came to 43.6 nM in series [1] and 261 nM in series [2] (setting [6]).

Turning to `Cc1ccc(/C(=C\CN2CCCC2)c2ccccn2)cc1` [TRIPROLIDINE HCl], the IC50 in series [1] (setting [5]) amounted to 14.1 nM.
